# Measurements as given in ChEMBL document CHEMBL1649393, “Synthesis and antimicrobial activity of thiosemicarbazides, s-triazoles and their Mannich bases bearing 3-chlorophenyl moiety” (2011).
# Columns and labels:
# Type in all cases: functional
# Staphylococcus aureus [1] = test: Antimicrobial activity against Staphylococcus aureus ATCC 25923 after 18 hrs by broth microdilution method; settings: ATCC 25923, 18 h
# Staphylococcus aureus [2] = test: Antimicrobial activity against Staphylococcus aureus ATCC 6538 after 18 hrs by broth microdilution method; settings: ATCC 6538, 18 h
# [3] = tested on: Staphylococcus epidermidis; test: Antimicrobial activity against Staphylococcus epidermidis ATCC 12228 after 18 hrs by broth microdilution method; settings: ATCC 12228, 18 h
# Bacillus subtilis [4] = test: Antimicrobial activity against Bacillus subtilis ATCC […] after 18 hrs by broth microdilution method
# Bacillus cereus [5] = test: Antimicrobial activity against Bacillus cereus ATCC 10876 after 18 hrs by broth microdilution method; settings: ATCC 10876, 18 h
# Micrococcus luteus [6] = test: Antimicrobial activity against Micrococcus luteus ATCC 10240 after 18 hrs by broth microdilution method; settings: ATCC 10240, 18 h
# Escherichia coli [7] = test: Antimicrobial activity against Escherichia coli ATCC 25922 after 18 hrs by broth microdilution method; settings: ATCC 25922, 18 h
# Klebsiella pneumoniae [8] = test: Antimicrobial activity against Klebsiella pneumoniae ATCC 13883 after 18 hrs by broth microdilution method; settings: ATCC 13883, 18 h
# Proteus mirabilis [9] = test: Antimicrobial activity against Proteus mirabilis ATCC 12453 after 18 hrs by broth microdilution method; settings: ATCC 12453, 18 h, read-out: MIC
# Staphylococcus aureus [10] = test: Antimicrobial activity against Staphylococcus aureus ATCC 25923 assessed as >99.9 % reduction in CFU after 18 hrs by broth microdilution method; settings: ATCC 25923, 18 h
# Staphylococcus aureus [11] = test: Antimicrobial activity against Staphylococcus aureus ATCC 6538 assessed as >99.9 % reduction in CFU after 18 hrs by broth microdilution method; settings: ATCC 6538, 18 h
# [12] = tested on: Staphylococcus epidermidis; test: Antimicrobial activity against Staphylococcus epidermidis ATCC 12228 assessed as >99.9 % reduction in CFU after 18 hrs by broth microdilution method; settings: ATCC 12228, 18 h
# Bacillus subtilis [13] = test: Antimicrobial activity against Bacillus subtilis ATCC […] assessed as >99.9 % reduction in CFU after 18 hrs by broth microdilution method
# Bacillus cereus [14] = test: Antimicrobial activity against Bacillus cereus ATCC 10876 assessed as >99.9 % reduction in CFU after 18 hrs by broth microdilution method; settings: ATCC 10876, 18 h
# Micrococcus luteus [15] = test: Antimicrobial activity against Micrococcus luteus ATCC 10240 assessed as >99.9 % reduction in CFU after 18 hrs by broth microdilution method; settings: ATCC 10240, 18 h
# Escherichia coli [16] = test: Antimicrobial activity against Escherichia coli ATCC 25922 assessed as >99.9 % reduction in CFU after 18 hrs by broth microdilution method; settings: ATCC 25922, 18 h
# Klebsiella pneumoniae [17] = test: Antimicrobial activity against Klebsiella pneumoniae ATCC 13883 assessed as >99.9 % reduction in CFU after 18 hrs by broth microdilution method; settings: ATCC 13883, 18 h, read-out: MBC
# Proteus mirabilis [18] = test: Antimicrobial activity against Proteus mirabilis ATCC 12453 assessed as >99.9 % reduction in CFU after 18 hrs by broth microdilution method; settings: ATCC 12453, 18 h, read-out: MBC
MIC (Staphylococcus aureus [1]),MIC (Staphylococcus aureus [2]),MIC [3],MIC (Bacillus subtilis [4]),MIC (Bacillus cereus [5]),MIC (Micrococcus luteus [6]),MIC (Escherichia coli [7]),MIC (Klebsiella pneumoniae [8]),MIC (Proteus mirabilis [9]),Structure (SMILES),MBC (Staphylococcus aureus [10]),MBC (Staphylococcus aureus [11]),MBC [12],MBC (Bacillus subtilis [13]),MBC (Bacillus cereus [14]),MBC (Micrococcus luteus [15]),MBC (Escherichia coli [16]),MBC (Klebsiella pneumoniae [17]),MBC (Proteus mirabilis [18])
31.2 µg/mL,31.2 µg/mL,31.2 µg/mL,15.6 µg/mL,15.6 µg/mL,31.2 µg/mL,,,,S=c1[nH]nc(-c2cccc(Cl)c2)n1-c1ccc(Br)cc1,,,,,,,,,
125 µg/mL,> 1000 µg/mL,1000 µg/mL,125 µg/mL,125 µg/mL,1000 µg/mL,1000 µg/mL,500 µg/mL,> 1000 µg/mL,S=c1n(CN2CCCC2)nc(-c2cccc(Cl)c2)n1-c1ccc(Cl)cc1,125 µg/mL,> 1000 µg/mL,1000 µg/mL,> 1000 µg/mL,> 1000 µg/mL,1000 µg/mL,1000 µg/mL,1000 µg/mL,> 1000 µg/mL
31.2 µg/mL,31.2 µg/mL,31.2 µg/mL,31.2 µg/mL,15.6 µg/mL,31.2 µg/mL,,,,O=C(NNC(=S)Nc1ccc(I)cc1)c1cccc(Cl)c1,,,,,,,,,
250 µg/mL,250 µg/mL,500 µg/mL,> 1000 µg/mL,> 1000 µg/mL,500 µg/mL,> 1000 µg/mL,> 1000 µg/mL,> 1000 µg/mL,S=c1n(CN2CCCC2)nc(-c2cccc(Cl)c2)n1-c1ccccc1Br,> 1000 µg/mL,> 1000 µg/mL,> 1000 µg/mL,> 1000 µg/mL,> 1000 µg/mL,> 1000 µg/mL,> 1000 µg/mL,> 1000 µg/mL,> 1000 µg/mL
> 1000 µg/mL,> 1000 µg/mL,250 µg/mL,1000 µg/mL,1000 µg/mL,1000 µg/mL,,,,Fc1ccc(F)c(-n2c(-c3cccc(Cl)c3)n[nH]c2=S)c1,,,,,,,,,
250 µg/mL,500 µg/mL,250 µg/mL,31.2 µg/mL,250 µg/mL,> 1000 µg/mL,,,,S=c1[nH]nc(-c2cccc(Cl)c2)n1-c1ccc(I)cc1,,,,,,,,,
> 1000 µg/mL,> 1000 µg/mL,> 1000 µg/mL,> 1000 µg/mL,> 1000 µg/mL,> 1000 µg/mL,,,,S=c1[nH]nc(-c2cccc(Cl)c2)n1-c1ccccc1I,,,,,,,,,
> 1000 µg/mL,> 1000 µg/mL,125 µg/mL,1000 µg/mL,1000 µg/mL,> 1000 µg/mL,,,,S=c1[nH]nc(-c2cccc(Cl)c2)n1-c1ccccc1Br,,,,,,,,,
31.2 µg/mL,31.2 µg/mL,31.2 µg/mL,15.6 µg/mL,31.2 µg/mL,31.2 µg/mL,,,,O=C(NNC(=S)Nc1ccccc1I)c1cccc(Cl)c1,,,,,,,,,
> 1000 µg/mL,> 1000 µg/mL,> 1000 µg/mL,125 µg/mL,> 1000 µg/mL,> 1000 µg/mL,,,,S=c1[nH]nc(-c2cccc(Cl)c2)n1-c1ccccc1,,,,,,,,,
> 1000 µg/mL,> 1000 µg/mL,> 1000 µg/mL,> 1000 µg/mL,> 1000 µg/mL,> 1000 µg/mL,,,,Fc1ccc(-n2c(-c3cccc(Cl)c3)n[nH]c2=S)cc1,,,,,,,,,
62.5 µg/mL,31.2 µg/mL,125 µg/mL,125 µg/mL,62.5 µg/mL,62.5 µg/mL,,,,O=C(NNC(=S)Nc1ccccc1Br)c1cccc(Cl)c1,,,,,,,,,
125 µg/mL,125 µg/mL,125 µg/mL,125 µg/mL,125 µg/mL,125 µg/mL,,,,S=c1[nH]nc(-c2cccc(Cl)c2)n1-c1ccc(Cl)cc1,,,,,,,,,
15.6 µg/mL,15.6 µg/mL,15.6 µg/mL,31.2 µg/mL,15.6 µg/mL,15.6 µg/mL,,,,O=C(NNC(=S)Nc1ccc(Br)cc1)c1cccc(Cl)c1,,,,,,,,,

Structure (SMILES),MIC (Staphylococcus aureus [1]),MIC (Staphylococcus aureus [2]),MIC [3],MIC (Bacillus subtilis [4]),MIC (Bacillus cereus [5]),MIC (Micrococcus luteus [6]),MIC (Escherichia coli [7]),MIC (Klebsiella pneumoniae [8]),MIC (Proteus mirabilis [9]),MBC (Staphylococcus aureus [10]),MBC (Staphylococcus aureus [11]),MBC [12],MBC (Bacillus subtilis [13]),MBC (Bacillus cereus [14]),MBC (Micrococcus luteus [15]),MBC (Escherichia coli [16]),MBC (Klebsiella pneumoniae [17]),MBC (Proteus mirabilis [18])
CC1(C)S[C@@H]2[C@H](NC(=O)[C@H](N)c3ccccc3)C(=O)N2[C@H]1C(=O)O [AMPICILLIN],2 µg/mL,3 µg/mL,6 µg/mL,3 µg/mL,62.5 µg/mL,6 µg/mL,,,,,,,,,,,,
